Reference: ChEMBL document CHEMBL4033617, “Stereo-controlled synthesis of functionalized tetrahydropyridines based on the cyanomethylation of 1,6-dihydropyridines and generation of anti-hepatitis C virus agents” (Bioorg Med Chem, 2017)

Test system: Hepatitis C virus
Experiment: Antiviral activity against Hepatitis C virus infected in human Huh7.5.1 cells after 72 hrs by focus formation assay
Type: functional, cell-based, Hepacivirus hominis
Settings: Huh-7.5.1, 72 h

IC50 [µM]	SMILES
10.8	N#CC[C@H]1C(C(=O)c2ccccc2)=CC=CN1Cc1ccccc1
15.4	C=CC[C@]1(C(=O)c2ccccc2)C=CCN(Cc2ccccc2)[C@H]1CC#N
